The record followed here is patent US20060084704A1, “Methods and compositions for enhancing degradation of nuclear receptor transcription factors and uses thereof” (priority 2004, published 2006).

Experiment [1] relates to LNCaP cells. Briefly: LNCaP growth assay (cell count). The experiment is classed as cell-based, human. Particulars: 5 μM. How it is done:
LNCaP cells express an endogenous mutant AR that is found in prostate cancer patients. This clinically relevant cell model was used to study JC9's effect in suppressing prostate cancer cell growth. Cells were plated at a density of 6.3×10^4 cells/well in 6-well tissue culture dishes. Two days later, the complete medium was aspired and 10% charcoal/dextran-treated (hormone depleted) serum-containing medium was added. Test compounds, JC9 and hydroxyflutamide (HF) were then added to the medium at a final concentration of 5 μM with or without 1 nM of DHT. For vehicle control, the same amount of DMSO was added. For the subsequent 5 days, the medium was aspired once per day, and fresh medium containing test compounds and/or DHT was added. At designated times, a portion of cells was harvested by trypsinization, and cell count was performed using a hemacytometer.

The target of experiment [2] is T1, mutant Q49 androgen receptor (Homo sapiens, UniProt P10275, INS80QQQQQQQQQQQQQQQQQQQQQQQQQQ).
T1 construct: GFP; expressed in transfected cells; host or cells: COS-1 (monkey kidney)
Briefly: Mutant androgen receptor inclusions in COS-1 cells transfected with GFPARQ49 (fluorescence microscopy). The class given is cell-based. Particulars: COS-1 cells transfected with GFPARQ49, JC9 5 micromolar. How it is done:
Monkey kidney COS-1 cells were plated at a density of 3×10^4 cells per 0.5-milliliter volume onto alcohol-cleaned and sterilized cover slips placed in 35-millimeter suspension culture dishes containing Dulbecco's modified Eagle's (DME) medium containing 10% FBS. The cells were transfected with plasmids containing either the Q19 (plasmid GFPARQ19) or Q49 (plasmid GFPARQ49) mutant androgen receptor and green fluorescent protein (GFP) as a reporter. For each coverslip, 12.3 microliters SuperFect was added to 3.075 micrograms plasmid in 102.5 microliters DME medium (to give a 1:4 ratio of DNA to SuperFect reagent); the mixture was vortexed briefly, and the complex allowed to form over 15 minutes. Each mixture then received 897 microliters CD/DME and was mixed gently. The resulting 1-milliliter volumes were added to the dishes containing the coverslips (final plasmid concentration was 3.02 micrograms per dish). Cells were allowed to incubate with the transfection solution for 5 hours, then the medium was changed to fresh 1.5 milliliters CD/DME medium with either vehicle (DMSO) only added or JC9 (final concentration 5 micromolar). […] The coverslips were air-dried, mounted on slides with a glycerol-based mounting agent, and stored at 4 degrees Celsius if necessary prior to observation with fluorescence microscopy. […]

Experiment [3] deals with T2, PPAR gamma (Homo sapiens, UniProt P37231).
T2 construct: endogenous in cells; host or cells: LNCaP
T2 sequence (P37231 1-505): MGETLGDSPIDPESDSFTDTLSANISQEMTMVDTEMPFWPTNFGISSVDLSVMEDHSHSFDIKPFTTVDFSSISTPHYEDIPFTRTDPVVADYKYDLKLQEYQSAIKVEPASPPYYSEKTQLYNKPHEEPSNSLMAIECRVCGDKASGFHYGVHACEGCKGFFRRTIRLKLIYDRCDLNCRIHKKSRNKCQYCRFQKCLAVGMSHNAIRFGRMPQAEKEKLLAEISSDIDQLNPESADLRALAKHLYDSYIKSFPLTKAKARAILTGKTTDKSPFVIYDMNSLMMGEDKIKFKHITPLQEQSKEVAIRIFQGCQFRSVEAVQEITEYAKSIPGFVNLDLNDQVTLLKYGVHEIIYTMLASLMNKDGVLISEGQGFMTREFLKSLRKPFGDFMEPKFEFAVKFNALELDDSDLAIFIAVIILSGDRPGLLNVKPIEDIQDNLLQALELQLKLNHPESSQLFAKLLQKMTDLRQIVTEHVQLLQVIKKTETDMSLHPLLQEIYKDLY
The experiment in a line: Western blot of LNCaP cell lysates, PPAR gamma. The experiment is classed as cell-based. The following applies: 1 or 2 micromolar, 24 hours, presence or absence of DHT. How it is done: Human prostate cancer LNCaP cells and T47D cells were plated at a density of 7×10^5 cells per 60 millimeter tissue culture dish in […] (RPMI) medium containing 10% FBS. The medium was changed to RPMI or DME medium containing 10% charcoal-stripped serum 24 hours later to deplete cellular androgens or estrogens. After another 24 hours, treatment with the test compounds began. The test dose of JC15 was 1 or 2 micromolar and the test does of JC9 was 1, 5 and 10 micromolar. LNCap cells also received dihydrotestosterone (DHT) (3 nanomolar). Control cells received a corresponding amount of the vehicle, dimethylsulfoxide (DMSO) (<0.04%) for an equivalent exposure time. Cells were incubated with JC15 for 24 or 48 hours, and were lysed in 250 microliters of 1×SDS/PAGE loading buffer. Approximately 40 micrograms of total cellular protein was loaded in each lane of a pre-cast gel (NuPAGE, Invitrogen). Protein separation and transfer were performed following the manufacturer's instructions.
For the prostate cell lysates, androgen receptor (AR) protein was visualized by incubating the resultant membranes with an anti-AR antibody (BD-PharMingen), followed by chemiluminescence detection (ECL Plus, Amersham). […] The resultant protein signals were quantified using densitometry and NIH ImageJ software.
Background: Immunoblotting shows a protein as a band on a membrane.

T1 sequence (P10275 with tags, fused parts or gaps with the stated changes): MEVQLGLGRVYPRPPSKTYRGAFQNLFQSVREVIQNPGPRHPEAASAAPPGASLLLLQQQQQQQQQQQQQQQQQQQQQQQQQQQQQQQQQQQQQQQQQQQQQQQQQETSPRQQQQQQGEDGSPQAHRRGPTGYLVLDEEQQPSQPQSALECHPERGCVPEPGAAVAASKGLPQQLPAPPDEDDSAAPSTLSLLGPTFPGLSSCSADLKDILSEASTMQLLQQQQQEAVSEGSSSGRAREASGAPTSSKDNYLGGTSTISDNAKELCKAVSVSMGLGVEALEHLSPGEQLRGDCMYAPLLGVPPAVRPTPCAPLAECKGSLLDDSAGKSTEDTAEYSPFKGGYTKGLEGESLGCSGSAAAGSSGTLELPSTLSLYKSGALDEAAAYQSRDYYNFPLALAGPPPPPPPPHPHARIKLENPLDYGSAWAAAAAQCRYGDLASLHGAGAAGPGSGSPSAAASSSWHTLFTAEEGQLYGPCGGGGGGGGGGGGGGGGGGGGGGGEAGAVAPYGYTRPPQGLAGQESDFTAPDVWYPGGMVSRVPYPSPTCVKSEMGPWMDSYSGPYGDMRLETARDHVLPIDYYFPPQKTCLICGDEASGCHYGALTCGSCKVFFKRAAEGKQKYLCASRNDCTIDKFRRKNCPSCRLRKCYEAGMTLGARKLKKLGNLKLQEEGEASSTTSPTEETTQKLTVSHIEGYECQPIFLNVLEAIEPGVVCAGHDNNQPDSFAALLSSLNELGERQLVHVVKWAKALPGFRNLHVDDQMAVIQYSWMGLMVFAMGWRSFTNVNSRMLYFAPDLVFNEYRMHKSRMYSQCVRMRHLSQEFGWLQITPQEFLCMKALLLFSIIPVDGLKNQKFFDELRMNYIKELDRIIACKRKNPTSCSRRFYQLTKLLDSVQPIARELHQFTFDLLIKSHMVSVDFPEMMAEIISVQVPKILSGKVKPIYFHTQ

With `COc1ccc(C=CC(=O)C=C(O)C=Cc2ccc(OC)c(OC)c2)cc1OC` [JC9, 5-hydroxy-1,7-bis(3,4-dimethoxyphenyl)-1,4,6-heptatrien-3-one], the “cell growth (cell number) in the presence of DHT” value in experiment [1] (with 1 nM DHT, 5 days) was “good potency to decrease LNCaP cell growth”. For the same molecule, the “cell growth (cell number)” value in experiment [1] (without DHT, 5-day incubation) is “only a minimal number of viable cells”. Moreover, the “fluorescent inclusions or aggregates of mutant Q49 androgen receptor” value in experiment [2] is “substantially smaller amounts of fluorescent inclusions”.

With `CCOC(=O)CCC(C(=O)C=Cc1ccc(O)c(OC)c1)C(=O)C=Cc1ccc(O)c(OC)c1` (stereo not shown) [JC15, 7-(4-hydroxy-3-methoxyphenyl)-4-[3-(4-hydroxy-3-methoxyphenyl)acryloyl]-5-oxo-hept-6-enoic acid ethyl ester], the “cellular concentration of PPAR gamma” value in experiment [3] was “did not substantially affect”.
